Measurements as given in patent US20180228780A1, “3-(1H-PYRROLO[2,3-C]PYRIDIN-2-YL)-1H-INDAZOLES AND THERAPEUTIC USES THEREOF” (Samumed, LLC, priority 2015, published 2018).

Legend:
Format in all cases: cell-based
[1] = tested on: Wnt activity (Sp5-Luc reporter, SW480 colon carcinoma cells); experiment: Screening assay for Wnt activity: Sp5-Luc reporter gene assay in SW480 cells; conditions: Homo sapiens; for EC50: SW480 Sp5-Luc reporter, overnight incubation; for inhibition at 10 µM: SW480, read-out: percent inhibition at 10 μM
Excerpt: The screening assay for Wnt activity is described as follows. Reporter cell lines can be generated by stably transducing cancer cell lines (e.g., colon cancer) or primary cells (e.g., IEC-6 intestinal cells) with a lentiviral construct that includes a Wnt-responsive promoter driving expression of the firefly luciferase gene.
SW480 colon carcinoma cells were transduced with a lentiviral vector expressing luciferase with a human Sp5 promoter consisting of a sequence of eight TCF/LEF binding sites. SW480 cells stably expressing the Sp5-Luc reporter gene and a hygromycin resistance gene were selected by treatment with 150 μg/mL of hygromycin for 7 days. These stably transduced SW480 cells were expanded in cell culture and used for all further screening activities. […] For Sp5-Luc reporter gene assays, the cells were plated at 4,000 cells/well in 384-well plates with medium containing 1% fetal bovine serum and incubated overnight at 37° C. and 5% CO2. Following incubation, 20 μl of BrightGlo luminescence reagent (Promega) was added to each well of the 384-well assay plates. The plates were placed on an orbital shaker for 2 min and then luminescence was quantified using the Envision (Perkin Elmer) plate reader. Readings were normalized to DMSO only treated cells, and normalized activities were utilized for EC50 calculations using the dose-response log (inhibitor) vs. response-variable slope (four parameters) nonlinear regression feature available in GraphPad Prism 5.0 (or Dotmatics).

SW480 colon cancer cells = experiment: Cell viability assay (CellTiter-Blue) in SW480 colon cancer cells; conditions: Homo sapiens; for EC50: 96 h, SW480 cell viability, four days incubation; for inhibition at 10 µM: SW480, read-out: percent inhibition at 10 μM
Experimental: Representative compounds were screened using the following assay procedure to assess the effect on cell viability as described below.
Approximately 2×10^3 SW480 colon cancer cells were seeded into each well and allowed to incubate in the presence or absence of compound for four days at 37° C./5% CO2. Eight replicates of DMSO-treated cells served as controls and cells treated with compound were performed in duplicate.
After incubation, 20 μL of CellTiter-Blue (Promega) was added to each well allowed to incubate for approximately 3 hours. This reagent was a buffered solution which contains resazurin, metabolically active cells were able to reduce rezarurin (blue) into resorufin (pink) which was highly fluorescent. This measured fluorescence was used as a readout for cell viability.

[2] = tested on: Primary human fibroblasts derived from IPF patients (LL29 cells); experiment: Inhibition of the fibrotic process: αSMA staining in TGF-β1-treated LL29 fibroblasts; conditions: Fibroblast, 96 h, LL29 cells, TGF-β1 20 ng/mL, 4 days, % αSMA-positive cells
Excerpt: Representative compounds were screened using primary human fibroblasts (derived from IFF patients) treated with TGF-β1 to determine their ability to inhibit the fibrotic process.
K. L., et.al., “RhoA signaling modulates cyclin D1 expression in human lung fibroblasts; implications for idiopathic pulmonary fibrosis”, Respiratory Research (2006), 7(1), 88] were obtained from American Type Culture Collection (ATCC) and expanded in F12 medium supplemented with 15% Fetal Bovine Serum and Penicillin/Streptomycin.
LL29 cells are plated at 1,500 cells/well in 80 μL/well F12 medium supplemented with 1% Fetal Bovine Serum. […] Wells treated with TGF-β1 and containing DMSO were used as controls. […] Following incubation for 4 days, SYTOX green nucleic acid stain (Life Technologies [Thermo Fisher Scientific]) was added to the wells at a final concentration of 1 μM and incubated at room temperature for 30 min.

IL-6 (THP-1 cells) = experiment: IL-6 inhibition in THP-1 monocytes (HTRF); conditions: Homo sapiens; for EC50: IL-6 inhibition, THP-1 cells, HTRF, 10-point dose-response starting from 10 μM; for inhibition at 10 µM: THP-1, read-out: percentage in parentheses printed under EC50 >10
Experimental: Compound Screening: THP-1 cells were cultured in basal media with 1% FBS for 24 hours before the start of the assay. […] THP-1 cells were plated at 5000 cells/well in the 384-well plates and incubated at 37° C. for 2 h. 500 ng/mL of […] was added after 2 hours and cells were incubated for another 22 hours at 37° C. Plates were spun in a centrifuge for 1 minute at 10,000 rpm and a mixture of anti-IL6 XL665, and anti-IL6 Cryptate diluted in reconstitution buffer (Cisbio Inc.) was added to each well. Following incubation for 3 hrs at room temperature, Homogeneous Time-Resolved Fluorescence (HTRF) was measured using the Envision (Perkin Elmer) at 665 nm and […]. The ratio of fluorescence at 665 nm to 620 nm was used as a readout for IL6 quantification. All samples were processed in duplicate. Readings were normalized to DMSO treated cells and normalized activities were utilized for EC50 calculations using the dose-response log (inhibitor) vs. response-variable slope (four parameters) nonlinear regression feature available in GraphPad Prism 5.0 (or Dotmatics).

| Compound | EC50 [1] [nM] | EC50 (SW480 colon cancer cells) [nM] | EC50 (IL-6 (THP-1 cells)) [nM] | EC50 [2] [nM] | inhibition at 10 µM [1] [%] | inhibition at 10 µM (SW480 colon cancer cells) [%] | inhibition at 10 µM (IL-6 (THP-1 cells)) [%] |
| --- | --- | --- | --- | --- | --- | --- | --- |
| CN(C)Cc1cncc(-c2ccc3[nH]nc(-c4cc5c(-c6ccc(F)cc6)cncc5[nH]4)c3c2)c1 [Compound 41, 1-(5-(3-(4-(4-Fluorophenyl)-1H-pyrrolo[2,3-c]pyridin-2-yl)-1H-indazol-5-yl)pyridin-3-yl)-N,N-dimethylmethanamine] | 3080 | 1170 | 7050 | 1190 | – | – | – |
| CN(C)CCOc1cncc(-c2ccc3[nH]nc(-c4cc5c(-c6ccc(F)cc6)cncc5[nH]4)c3c2)c1 [Compound 531, 2-((5-(3-(4-(4-Fluorophenyl)-1H-pyrrolo[2,3-c]pyridin-2-yl)-1H-indazol-5-yl)pyridin-3-yl)oxy)-N,N-dimethylethan-1-amine] | 2010 | 976 | 2760 | 607 | – | – | – |
| O=C(Nc1cncc(-c2ccc3[nH]nc(-c4cc5c(-c6ccncc6)cncc5[nH]4)c3c2)c1)C1CCCCC1 [Compound 135, N-(5-(3-(4-(Pyridin-4-yl)-1H-pyrrolo[2,3-c]pyridin-2-yl)-1H-indazol-5-yl)pyridin-3-yl)cyclohexanecarboxamide] | > 10000 | > 10000 | 1630 | 9980 | 20.8 | 6.1 | – |
| CCCC(=O)Nc1cncc(-c2ccc3[nH]nc(-c4cc5c(-c6ccc(F)cc6)cncc5[nH]4)c3c2)c1 [Compound 45, N-(5-(3-(4-(4-Fluorophenyl)-1H-pyrrolo[2,3-c]pyridin-2-yl)-1H-indazol-5-yl)pyridin-3-yl)butyramide] | 1510 | 1010 | 349 | 290 | – | – | – |
| Fc1cccc(-c2cncc3[nH]c(-c4n[nH]c5ccc(-c6ccncc6)cc45)cc23)c1 [Compound 18, 3-(4-(3-Fluorophenyl)-1H-pyrrolo[2,3-c]pyridin-2-yl)-5-(pyridin-4-yl)-1H-indazole] | 2110 | 988 | > 10000 | 973 | – | – | 54.3 |
| c1ccc(-c2ccc3[nH]nc(-c4cc5c(-c6ccncc6)cncc5[nH]4)c3c2)nc1 [Compound 140, 5-(Pyridin-2-yl)-3-(4-(pyridin-4-yl)-1H-pyrrolo[2,3-c]pyridin-2-yl)-1H-indazole] | 1290 | 1060 | 177 | 750 | – | – | – |
| c1cc(-c2ccc3[nH]nc(-c4cc5c(-c6ccncc6)cncc5[nH]4)c3c2)ccn1 [Compound 130, 5-(Pyridin-4-yl)-3-(4-(pyridin-4-yl)-1H-pyrrolo[2,3-c]pyridin-2-yl)-1H-indazole] | > 10000 | > 10000 | > 10000 | 1230 | 24.7 | 16.6 | 20.5 |
| NC1CN(c2cncc(-c3ccc4[nH]nc(-c5cc6c(N7CCCCC7)cncc6[nH]5)c4c3)n2)C1 [Compound 606, 1-(6-(3-(4-(Piperidin-1-yl)-1H-pyrrolo[2,3-c]pyridin-2-yl)-1H-indazol-5-yl)pyrazin-2-yl)azetidin-3-amine] | 738 | 2810 | 306 | 486 | – | – | – |
| CC(C)Nc1cncc(-c2ccc3[nH]nc(-c4cc5c(-c6cc(F)cc(CNS(C)(=O)=O)c6)cncc5[nH]4)c3c2)c1 [Compound 488, N-(3-Fluoro-5-(2-(5-(5-(isopropylamino)pyridin-3-yl)-1H-indazol-3-yl)-1H-pyrrolo[2,3-c]pyridin-4-yl)benzyl)methanesulfonamide] | 759 | 1650 | 130 | 2220 | – | – | – |
| O=C(Cc1ccccc1)Nc1cncc(-c2ccc3[nH]nc(-c4cc5c(-c6ccncc6)cncc5[nH]4)c3c2)c1 [Compound 122] | > 10000 | > 10000 | > 10000 | 1470 | 21 | 8.6 | 47.8 |
| Fc1ccccc1-c1cncc2[nH]c(-c3n[nH]c4ccc(-c5cncc(CN6CCCCC6)c5)cc34)cc12 [Compound 71, 3-(4-(2-Fluorophenyl)-1H-pyrrolo[2,3-c]pyridin-2-yl)-5-(5-(piperidin-1-ylmethyl)pyridin-3-yl)-1H-indazole] | 4260 | 3420 | 3300 | 2310 | – | – | – |
| CCCCC(=O)Nc1cncc(-c2ccc3[nH]nc(-c4cc5c(-c6ccccc6F)cncc5[nH]4)c3c2)c1 [Compound 75] | 1760 | 1180 | > 10000 | 1160 | – | – | 39.1 |
| c1cc(-c2ccc3[nH]nc(-c4cc5c(-c6ccsc6)cncc5[nH]4)c3c2)ccn1 [Compound 298, 5-(Pyridin-4-yl)-3-(4-(thiophen-3-yl)-1H-pyrrolo[2,3-c]pyridin-2-yl)-1H-indazole] | 1330 | 1360 | 1090 | 716 | – | – | – |

Now those with a lower EC50 [1], led by results:

| EC50 [1] [nM] | EC50 (SW480 colon cancer cells) [nM] | EC50 (IL-6 (THP-1 cells)) [nM] | Compound | EC50 [2] [nM] | inhibition at 10 µM [1] [%] | inhibition at 10 µM (SW480 colon cancer cells) [%] | inhibition at 10 µM (IL-6 (THP-1 cells)) [%] |
| --- | --- | --- | --- | --- | --- | --- | --- |
| 680 | 702 | 6910 | CC(C)(C)C(=O)Nc1cncc(-c2ccc3[nH]nc(-c4cc5c(-c6ccc(F)cc6)cncc5[nH]4)c3c2)c1 [Compound 36, N-(5-(3-(4-(4-Fluorophenyl)-1H-pyrrolo[2,3-c]pyridin-2-yl)-1H-indazol-5-yl)pyridin-3-yl)pivalamide] | 1090 | – | – | – |
| 200 | 282 | 87 | CCCC(=O)Nc1cncc(-c2ccc3[nH]nc(-c4cc5c(-c6cccc(F)c6)cncc5[nH]4)c3c2)c1 [Compound 17, N-(5-(3-(4-(3-Fluorophenyl)-1H-pyrrolo[2,3-c]pyridin-2-yl)-1H-indazol-5-yl)pyridin-3-yl)butyramide] | 254 | – | – | – |
| 240 | 302 | 171 | O=C(Nc1cncc(-c2ccc3[nH]nc(-c4cc5c(-c6ccc(F)cc6)cncc5[nH]4)c3c2)c1)C1CCC1 [Compound 49, N-(5-(3-(4-(4-Fluorophenyl)-1H-pyrrolo[2,3-c]pyridin-2-yl)-1H-indazol-5-yl)pyridin-3-yl)cyclobutanecarboxamide] | 135 | – | – | – |
| 626 | 812 | 263 | CC(C)C(=O)Nc1cncc(-c2ccc3[nH]nc(-c4cc5c(-c6ccccc6F)cncc5[nH]4)c3c2)c1 [Compound 65, N-(5-(3-(4-(2-Fluorophenyl)-1H-pyrrolo[2,3-c]pyridin-2-yl)-1H-indazol-5-yl)pyridin-3-yl)isobutyramide] | 1250 | – | – | – |
| 620 | 513 | 108 | O=C(Nc1cncc(-c2ccc3[nH]nc(-c4cc5c(-c6cccc(F)c6)cncc5[nH]4)c3c2)c1)C1CCCCC1 [Compound 23, N-(5-(3-(4-(3-Fluorophenyl)-1H-pyrrolo[2,3-c]pyridin-2-yl)-1H-indazol-5-yl)pyridin-3-yl)cyclohexanecarboxamide] | 193 | – | – | – |
| 49 | 134 | 37 | Fc1ccccc1-c1cncc2[nH]c(-c3n[nH]c4ccc(-c5cn[nH]c5)cc34)cc12 [Compound 539, 3-(4-(2-Fluorophenyl)-1H-pyrrolo[2,3-c]pyridin-2-yl)-5-(1H-pyrazol-4-yl)-1H-indazole] | 164 | – | – | – |
